Results on two compounds are retold here after publication PMC11600167 (JACS Au, 2024).

Common to all, as to test: glycan microarray on Cu2O@Ag slides
Common to all, as to format: binding

For assay [1], the target named is T1, hGal-1 (human galectin-1) (Homo sapiens, UniProt P09382).
T1 construct: gene LGALS1; dimeric lectin; construct details only in supplement
To be noted: immobilised glycan via azide linker; hGal-1 25 μg/mL.

Assay [2] has as its target T2, hGal-7 (human galectin-7) (Homo sapiens, UniProt P47929).
T2 construct: gene LGALS7; construct details only in supplement
To be noted: immobilised glycan via azide linker; hGal-7 25 μg/mL.

The target of assay [3] is T3, hGal-3 (human galectin-3) (Homo sapiens, UniProt P17931).
T3 construct: gene LGALS3; chimera-type galectin; construct details only in supplement
To be noted: immobilised glycan via azide linker; hGal-3 25 μg/mL.

T3 sequence (P17931 2-250): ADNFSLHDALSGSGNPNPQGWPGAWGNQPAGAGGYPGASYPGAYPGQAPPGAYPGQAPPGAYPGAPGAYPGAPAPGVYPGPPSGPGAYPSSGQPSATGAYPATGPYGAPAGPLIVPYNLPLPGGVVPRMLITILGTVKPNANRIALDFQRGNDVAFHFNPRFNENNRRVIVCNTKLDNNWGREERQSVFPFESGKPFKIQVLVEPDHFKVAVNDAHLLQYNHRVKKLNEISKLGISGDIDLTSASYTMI
T2 sequence (P47929 whole entry): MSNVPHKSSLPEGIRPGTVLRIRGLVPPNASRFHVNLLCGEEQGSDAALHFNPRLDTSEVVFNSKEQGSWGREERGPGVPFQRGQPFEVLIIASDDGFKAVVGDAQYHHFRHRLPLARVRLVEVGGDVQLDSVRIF
T1 sequence (P09382 2-135): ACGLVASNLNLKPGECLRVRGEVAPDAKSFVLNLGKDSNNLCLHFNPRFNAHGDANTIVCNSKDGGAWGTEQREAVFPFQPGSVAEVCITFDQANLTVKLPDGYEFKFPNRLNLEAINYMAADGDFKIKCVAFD

Take `CC(=O)N[C@H]1[C@H](O[C@H]2[C@@H](O)[C@@H](CO)O[C@@H](O[C@H]3[C@H](O)[C@@H](O)C(O)O[C@@H]3CO)[C@@H]2O)O[C@H](CO)[C@@H](O)[C@@H]1O[C@@H]1O[C@H](CO)[C@H](O)[C@H](O)[C@H]1O` (stereo partly drawn) [LNT]: the “glycan microarray on Cu2O@Ag slides” value is “LNT and LNnT, respectively) further increased the binding affinity” in assay [1]; “with LNT showing the strongest binding affinity” in assay [2].

Consider `CC(=O)N[C@H]1[C@H](O[C@H]2[C@@H](O)[C@@H](CO)O[C@@H](O[C@H]3[C@H](O)[C@@H](O)C(O)O[C@@H]3CO)[C@@H]2O)O[C@H](CO)[C@@H](O[C@@H]2O[C@H](CO)[C@H](O)[C@H](O)[C@H]2O)[C@@H]1O` (stereo partly drawn) [LNnT], for which the “glycan microarray on Cu2O@Ag slides” value in assay [3] is reported as “The stronger affinity of LNnT compared to LNT”.
